How the values were obtained:
[1] = test system: Pancreas; experiment: Biodistribution in Wistar rat pancreas at 1.7 MBq, iv administered as single dose measured after 10 mins post-injection by gamma counting; type: ADME, organism-based; conditions: in vivo
[2] = test system: Heart; experiment: Biodistribution in Wistar rat heart at 1.7 MBq, iv administered as single dose measured after 10 mins post-injection by gamma counting; type: ADME, organism-based; conditions: in vivo
[3] = test system: Lung; experiment: Biodistribution in Wistar rat lung at 1.7 MBq, iv administered as single dose measured after 10 mins post-injection by gamma counting; type: ADME, organism-based; conditions: in vivo
[4] = test system: Thymus; experiment: Biodistribution in Wistar rat thymus at 1.7 MBq, iv administered as single dose measured after 10 mins post-injection by gamma counting; type: ADME, organism-based; conditions: in vivo
[5] = test system: Brain; experiment: Biodistribution in Wistar rat brain at 1.7 MBq, iv administered as single dose measured after 30 mins post-injection by gamma counting; type: ADME, organism-based; conditions: in vivo, 0.5 h
[6] = test system: Spleen; experiment: Biodistribution in Wistar rat spleen at 1.7 MBq, iv administered as single dose measured after 30 mins post-injection by gamma counting; type: ADME, organism-based; conditions: in vivo, 0.5 h
[7] = Ratio of drug level in brown adipose tissue to blood in Wistar rat at 1.7 MBq, iv administered as single dose measured after 60 mins post-injection; type: ADME, organism-based
[8] = Ratio of drug level in heart to blood in Wistar rat at 1.7 MBq, iv administered as single dose measured after 60 mins post-injection; type: ADME, organism-based
[9] = Octanol-phosphate buffer distribution coefficient, log D at pH 7.4 by shake-flask method; type: physicochemical
[10] = test system: Brain; experiment: Biodistribution in Wistar rat brain at 1.7 MBq, iv administered as single dose measured after 60 mins post-injection by gamma counting; type: ADME, organism-based; conditions: in vivo, 1 h
[11] = test system: Adrenal gland; experiment: Biodistribution in Wistar rat adrenal gland at 1.7 MBq, iv administered as single dose measured after 60 mins post-injection by gamma counting; type: ADME, organism-based; conditions: in vivo, 1 h
[12] = test system: Kidney; experiment: Biodistribution in Wistar rat kidney at 1.7 MBq, iv administered as single dose measured after 60 mins post-injection by gamma counting; type: ADME, organism-based; conditions: in vivo, 1 h
[13] = Biodistribution in Wistar rat stomach at 1.7 MBq, iv administered as single dose measured after 60 mins post-injection by gamma counting; type: ADME, organism-based; conditions: in vivo, 1 h
[14] = Ratio of drug level in harderian gland to blood in Wistar rat at 1.7 MBq, iv administered as single dose measured after 5 mins post-injection; type: ADME, organism-based
[15] = Ratio of drug level in brown adipose tissue to blood in Wistar rat at 1.7 MBq, iv administered as single dose measured after 5 mins post-injection; type: ADME, organism-based
[16] = Ratio of drug level in brain to blood in Wistar rat at 1.7 MBq, iv administered as single dose measured after 5 mins post-injection; type: ADME, organism-based
[17] = Ratio of drug level in harderian gland to blood in Wistar rat at 1.7 MBq, iv administered as single dose measured after 60 mins post-injection; type: ADME, organism-based
[18] = test system: Brain; experiment: Biodistribution in Wistar rat brain assessed as standard uptake value at 1.7 MBq, iv administered as single dose measured after 30 mins post-injection by gamma counting; type: ADME, organism-based; conditions: in vivo, 0.5 h
[19] = Biodistribution in Wistar rat brown adipose tissue assessed as standard uptake value at 1.7 MBq, iv administered as single dose measured after 1 min post-injection by gamma counting; type: ADME, organism-based; conditions: in vivo
[20] = Biodistribution in Wistar rat hair/skin assessed as standard uptake value at 1.7 MBq, iv administered as single dose measured after 1 min post-injection by gamma counting; type: ADME, organism-based; conditions: in vivo
[21] = test system: Adrenal gland; experiment: Biodistribution in Wistar rat adrenal gland assessed as standard uptake value at 1.7 MBq, iv administered as single dose measured after 1 min post-injection by gamma counting; type: ADME, organism-based; conditions: in vivo
[22] = test system: Muscle tissue; experiment: Biodistribution in Wistar rat muscle assessed as standard uptake value at 1.7 MBq, iv administered as single dose measured after 1 min post-injection by gamma counting; type: ADME, organism-based; conditions: in vivo
[23] = test system: Femur; experiment: Biodistribution in Wistar rat femur assessed as standard uptake value at 1.7 MBq, iv administered as single dose measured after 1 min post-injection by gamma counting; type: ADME, organism-based; conditions: in vivo
[24] = Biodistribution in Wistar rat hair/skin assessed as standard uptake value at 1.7 MBq, iv administered as single dose measured after 5 mins post-injection by gamma counting; type: ADME, organism-based; conditions: in vivo
[25] = test system: Muscle tissue; experiment: Biodistribution in Wistar rat muscle assessed as standard uptake value at 1.7 MBq, iv administered as single dose measured after 30 mins post-injection by gamma counting; type: ADME, organism-based; conditions: in vivo, 0.5 h
[26] = test system: Lung; experiment: Biodistribution in Wistar rat lung assessed as standard uptake value at 1.7 MBq, iv administered as single dose measured after 30 mins post-injection by gamma counting; type: ADME, organism-based; conditions: in vivo, 0.5 h
[27] = test system: Thymus; experiment: Biodistribution in Wistar rat thymus assessed as standard uptake value at 1.7 MBq, iv administered as single dose measured after 30 mins post-injection by gamma counting; type: ADME, organism-based; conditions: in vivo, 0.5 h
[28] = test system: Harderian gland; experiment: Biodistribution in Wistar rat harderian gland assessed as standard uptake value at 1.7 MBq, iv administered as single dose measured after 30 mins post-injection by gamma counting; type: ADME, organism-based; conditions: in vivo, 0.5 h
[29] = test system: Femur; experiment: Biodistribution in Wistar rat femur assessed as standard uptake value at 1.7 MBq, iv administered as single dose measured after 30 mins post-injection by gamma counting; type: ADME, organism-based; conditions: in vivo, 0.5 h
[30] = test system: Brain; experiment: Biodistribution in Wistar rat brain assessed as standard uptake value at 1.7 MBq, iv administered as single dose measured after 60 mins post-injection by gamma counting; type: ADME, organism-based; conditions: in vivo, 1 h
[31] = test system: Muscle tissue; experiment: Biodistribution in Wistar rat muscle assessed as standard uptake value at 1.7 MBq, iv administered as single dose measured after 60 mins post-injection by gamma counting; type: ADME, organism-based; conditions: in vivo, 1 h
[32] = test system: Thymus; experiment: Biodistribution in Wistar rat thymus assessed as standard uptake value at 1.7 MBq, iv administered as single dose measured after 60 mins post-injection by gamma counting; type: ADME, organism-based; conditions: in vivo, 1 h
[33] = test system: Liver; experiment: Biodistribution in Wistar rat liver assessed as standard uptake value at 1.7 MBq, iv administered as single dose measured after 60 mins post-injection by gamma counting; type: ADME, organism-based; conditions: in vivo, 1 h
[34] = test system: Lung; experiment: Biodistribution in Wistar rat lung assessed as standard uptake value at 1.7 MBq, iv administered as single dose measured after 5 mins post-injection by gamma counting; type: ADME, organism-based; conditions: in vivo
[35] = test system: Thymus; experiment: Biodistribution in Wistar rat thymus assessed as standard uptake value at 1.7 MBq, iv administered as single dose measured after 5 mins post-injection by gamma counting; type: ADME, organism-based; conditions: in vivo
[36] = test system: Harderian gland; experiment: Biodistribution in Wistar rat harderian gland assessed as standard uptake value at 1.7 MBq, iv administered as single dose measured after 5 mins post-injection by gamma counting; type: ADME, organism-based; conditions: in vivo
[37] = test system: Blood; experiment: Biodistribution in Wistar rat blood assessed as standard uptake value at 1.7 MBq, iv administered as single dose measured after 10 mins post-injection by gamma counting; type: ADME, organism-based; conditions: in vivo
[38] = test system: Adrenal gland; experiment: Biodistribution in Wistar rat adrenal gland at 1.7 MBq, iv administered as single dose measured after 1 min post-injection by gamma counting; type: ADME, organism-based; conditions: in vivo
[39] = test system: Thymus; experiment: Biodistribution in Wistar rat thymus at 1.7 MBq, iv administered as single dose measured after 1 min post-injection by gamma counting; type: ADME, organism-based; conditions: in vivo
[40] = test system: Muscle tissue; experiment: Biodistribution in Wistar rat muscle assessed as standard uptake value at 1.7 MBq, iv administered as single dose measured after 10 mins post-injection by gamma counting; type: ADME, organism-based; conditions: in vivo
[41] = test system: Heart; experiment: Biodistribution in Wistar rat heart assessed as standard uptake value at 1.7 MBq, iv administered as single dose measured after 10 mins post-injection by gamma counting; type: ADME, organism-based; conditions: in vivo
[42] = test system: Heart; experiment: Biodistribution in Wistar rat heart at 1.7 MBq, iv administered as single dose measured after 5 mins post-injection by gamma counting; type: ADME, organism-based; conditions: in vivo

O=C1Nc2ccccc2/C1=C/c1ccc([18F])cc1
Drug uptake [1]: 0.28 %ID | Drug uptake [2]: 0.35 %ID | Drug uptake [3]: 0.66 %ID | Drug uptake [4]: 0.23 %ID | Drug uptake [5]: 0.44 %ID | Drug uptake [6]: 0.08 %ID | Kp at 1 h [7]: 4.3 | Kp at 1 h [8]: 1.8 | logD [9]: 3.39 | Drug uptake [10]: 0.2 %ID | Drug uptake [11]: 0.04 %ID | Drug uptake [12]: 0.91 %ID | Drug uptake [13]: 0.6 %ID | Kp at 5 min [14]: 4.4 | Kp at 5 min [15]: 4.1 | Kp at 5 min [16]: 3 | Kp at 1 h [17]: 6.8 | SUV [18]: 0.41% | SUV [19]: 1.42% | SUV [20]: 0.67% | SUV [21]: 4.95% | SUV [22]: 0.82% | SUV [23]: 0.89% | SUV [24]: 0.92% | SUV [25]: 0.45% | SUV [26]: 0.47% | SUV [27]: 0.26% | SUV [28]: 1.07% | SUV [29]: 0.28% | SUV [30]: 0.18% | SUV [31]: 0.19% | SUV [32]: 0.13% | SUV [33]: 1.3% | SUV [34]: 1.3% | SUV [35]: 0.82% | SUV [36]: 2.43% | SUV [37]: 0.47% | Drug uptake [38]: 0.15 %ID | Drug uptake [39]: 0.5 %ID | SUV [40]: 0.69% | SUV [41]: 0.88% | Drug uptake [42]: 0.54 %ID
